Laboratory results published in patent US9758526B2, “Quinoline-substituted compound” (TAIHO PHARMACEUTICAL CO., LTD., priority 2013, dated 2017).

How the values were obtained:
EGFR (T790M/L858R) = biological target: T1, EGFR (T790M/L858R) (Homo sapiens, UniProt P00533, L858R/T790M); assay: EGFR (T790M/L858R) kinase inhibitory activity; type: biochemical; settings: ATP 1 μM, 25° C. for 120 minutes
T1 construct: purchased Carna Biosciences, Inc
Method: The inhibitory activities of the compounds of the present invention against EGFR (T790M/L858R) kinase activity were measured.
(§1) Among the materials of the inhibitory activity measurement, the substrate peptide and the kinase protein were obtained as follows. A peptide with biotinylated N-terminus (biotin-EEPLYWSFPAKKK) was synthesized with reference to FL-Peptide 22, a reagent for LabChip® series of PerkinElmer, Inc. For the kinase protein, a purified recombinant human EGFR (T790M/L858R) protein of Carna Biosciences, Inc. was purchased.
(§2) The inhibitory activity measurement was performed as follows. The compounds of the present invention were individually dissolved in dimethyl sulfoxide (DMSO), and serial dilutions of these compounds were prepared using DMSO. Subsequently, a solution containing the substrate peptide (final concentration: 250 nM), magnesium chloride (final concentration: 10 mM), manganese chloride (final concentration: 10 mM), and ATP (final concentration: 1 μM) in a buffer solution for kinase reaction (Carna Biosciences, Inc.) was mixed with the dilutions of the compounds (final concentration of DMSO upon kinase reaction: 2.5%) or DMSO (final concentration: 2.5%). EGFR (T790M/L858R) protein was further added thereto, and the mixtures were incubated at 25° C. for 120 minutes to carry out a kinase reaction. EDTA was added thereto to a final concentration of 24 mM to thereby terminate the reaction. A phosphorylated thyrosine detection solution containing europium (Eu)-labeled anti-phosphorylated tyrosine antibody PT66 (PerkinElmer, Inc.) and SureLight APC-SA (PerkinElmer, Inc.) was added to the reaction mixtures, and the mixtures were allowed to stand at room temperature for 2 hours or more. For the background, a sample to which EDTA was added before addition of EGFR (T790M/L858R) protein was incubated at 25° C. for 120 minutes, using DMSO instead of the DMSO solution of the compound. The detection solution was also added to this sample, and the mixture was allowed to stand for 2 hours or more. Finally, for all of the test samples, the amount of fluorescence at the time of irradiation of excitation light having a wavelength of 337 nm was measured at dual wavelengths of 620 nm and 665 nm by PHERAstar FS (BMG LABTECH), and a ratio of the fluorescence amounts at the two wavelengths was obtained as data.
(§3) Based on the above rates, phosphorylation inhibition rates (%) were calculated for the samples to which various concentrations of the compound solutions were added. Finally, the obtained reaction inhibition rates (%) at the respective concentrations were plotted for each compound, and the IC50 value (nM), which is a compound concentration at which phosphorylation by EGFR (T790M/L858R) is inhibited by 50%, was determined using XLfit curve-fitting software (IDBS).

EGFR (d746-750/T790M) = biological target: T2, EGFR (d746-750/T790M) (Homo sapiens, UniProt P00533, DEL746-750/T790M); assay: EGFR (d746-750/T790M) kinase inhibitory activity; type: biochemical; settings: ATP 1.5 μM
T2 construct: purchased Carna Biosciences, Inc
T2 sequence (P00533 with tags, fused parts or gaps DEL746-750/T790M limits assumed): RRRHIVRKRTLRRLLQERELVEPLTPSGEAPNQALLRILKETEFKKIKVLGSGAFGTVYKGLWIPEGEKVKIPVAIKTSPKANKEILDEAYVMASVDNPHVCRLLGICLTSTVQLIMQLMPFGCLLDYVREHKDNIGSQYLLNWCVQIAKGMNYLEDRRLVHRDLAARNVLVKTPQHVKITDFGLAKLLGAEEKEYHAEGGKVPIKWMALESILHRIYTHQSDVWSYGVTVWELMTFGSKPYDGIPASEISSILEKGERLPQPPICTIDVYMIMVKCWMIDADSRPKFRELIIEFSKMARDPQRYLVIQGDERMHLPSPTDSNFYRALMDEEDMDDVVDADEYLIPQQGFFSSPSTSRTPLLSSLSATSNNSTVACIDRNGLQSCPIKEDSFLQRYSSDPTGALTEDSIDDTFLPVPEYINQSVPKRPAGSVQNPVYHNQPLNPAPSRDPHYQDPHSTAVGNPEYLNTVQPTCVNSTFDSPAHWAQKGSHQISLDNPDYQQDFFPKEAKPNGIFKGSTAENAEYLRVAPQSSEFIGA
Method: as §1, §2, §3
The inhibitory activities of the compounds of the present invention against EGFR (d746-750/T790M) kinase activity were measured.
The materials, the measurement method, and the data analysis method were substantially the same as those shown in the above description regarding “Measurement of EGFR (T790M/L858R) Kinase Inhibitory Activity,” except that a purified recombinant human EGFR (d746-750/T790M) protein purchased from Carna Biosciences, Inc. was used as the kinase protein, and the measurement was performed with an ATP final concentration of 1.5 μM. Finally, the IC50 value (nM) of each compound with respect to EGFR (d746-750/T790M) was determined by data analysis.

EGFR (L858R) = biological target: T3, EGFR (L858R) (Homo sapiens, UniProt P00533, L858R); assay: EGFR (L858R) kinase inhibitory activity; type: biochemical; settings: ATP 4 μM
T3 construct: purchased Carna Biosciences, Inc
T3 sequence (P00533 25-1210 L858R): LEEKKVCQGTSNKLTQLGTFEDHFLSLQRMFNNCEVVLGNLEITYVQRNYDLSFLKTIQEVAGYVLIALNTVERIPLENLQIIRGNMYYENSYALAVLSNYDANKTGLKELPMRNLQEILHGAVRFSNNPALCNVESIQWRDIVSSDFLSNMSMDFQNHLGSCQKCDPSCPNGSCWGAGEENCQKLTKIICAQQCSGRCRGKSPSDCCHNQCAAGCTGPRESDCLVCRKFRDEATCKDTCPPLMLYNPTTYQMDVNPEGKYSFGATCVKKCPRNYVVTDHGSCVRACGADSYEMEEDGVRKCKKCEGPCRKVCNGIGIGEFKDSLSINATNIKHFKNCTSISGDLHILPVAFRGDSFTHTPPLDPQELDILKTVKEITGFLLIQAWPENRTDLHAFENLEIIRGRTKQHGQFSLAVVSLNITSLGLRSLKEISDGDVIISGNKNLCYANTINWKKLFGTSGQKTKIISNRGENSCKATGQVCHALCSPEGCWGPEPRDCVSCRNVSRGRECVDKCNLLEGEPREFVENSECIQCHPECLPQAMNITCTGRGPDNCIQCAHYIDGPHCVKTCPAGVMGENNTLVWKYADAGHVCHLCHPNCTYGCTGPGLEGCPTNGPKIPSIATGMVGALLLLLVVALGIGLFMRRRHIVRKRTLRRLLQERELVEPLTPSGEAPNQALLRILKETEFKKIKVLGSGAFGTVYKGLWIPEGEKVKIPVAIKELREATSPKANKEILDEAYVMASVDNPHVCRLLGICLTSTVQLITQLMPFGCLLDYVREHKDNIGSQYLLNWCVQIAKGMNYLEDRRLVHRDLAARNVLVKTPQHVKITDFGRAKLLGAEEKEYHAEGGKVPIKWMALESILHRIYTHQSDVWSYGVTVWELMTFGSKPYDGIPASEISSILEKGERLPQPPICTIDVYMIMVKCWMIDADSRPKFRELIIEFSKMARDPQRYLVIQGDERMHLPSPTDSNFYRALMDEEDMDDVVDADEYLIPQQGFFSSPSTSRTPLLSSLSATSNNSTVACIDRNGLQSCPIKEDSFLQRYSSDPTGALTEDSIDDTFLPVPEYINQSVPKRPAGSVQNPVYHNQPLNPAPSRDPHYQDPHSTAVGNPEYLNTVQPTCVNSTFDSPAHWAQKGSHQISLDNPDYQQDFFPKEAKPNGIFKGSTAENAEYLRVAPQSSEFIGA
Method: as §1, §2, §3
The inhibitory activities of the compounds of the present invention against EGFR (L858R) kinase activity were measured.
The materials, the measurement method, and the data analysis method were substantially the same as those shown in the above description regarding “Measurement of EGFR (T790M/L858R) Kinase Inhibitory Activity,” except that a purified recombinant human EGFR (L858R) protein purchased from Carna Biosciences, Inc. was used as the kinase protein, and the measurement was performed with ATP at a final concentration of 4 μM. Finally, the IC50 value (nM) of each compound with respect to EGFR (L858R) was determined by data analysis.

EGFR (d746-750) = biological target: T4, EGFR (d746-750) (Homo sapiens, UniProt P00533, DEL746-750); assay: EGFR (d746-750) kinase inhibitory activity; type: biochemical; settings: ATP 5 μM, kinase reaction 90 minutes
T4 construct: purchased Carna Biosciences, Inc
T4 sequence (P00533 with tags, fused parts or gaps DEL746-750 limits assumed): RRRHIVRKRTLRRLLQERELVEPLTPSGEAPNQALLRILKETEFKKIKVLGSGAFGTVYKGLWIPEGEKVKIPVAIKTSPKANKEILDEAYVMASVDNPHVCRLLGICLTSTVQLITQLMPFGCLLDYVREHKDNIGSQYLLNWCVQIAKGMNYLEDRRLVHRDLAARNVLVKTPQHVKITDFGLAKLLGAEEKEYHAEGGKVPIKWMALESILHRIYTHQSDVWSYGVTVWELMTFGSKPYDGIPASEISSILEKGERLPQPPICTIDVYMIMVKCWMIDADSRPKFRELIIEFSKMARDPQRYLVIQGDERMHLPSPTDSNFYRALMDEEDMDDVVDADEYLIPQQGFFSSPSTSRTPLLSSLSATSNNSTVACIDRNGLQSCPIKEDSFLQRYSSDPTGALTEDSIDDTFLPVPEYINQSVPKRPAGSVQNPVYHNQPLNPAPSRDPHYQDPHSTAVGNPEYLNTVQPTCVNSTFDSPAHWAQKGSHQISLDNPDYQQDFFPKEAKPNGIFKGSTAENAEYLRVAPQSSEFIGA
Method: as §1, §2, §3
The inhibitory activities of the compounds of the present invention against EGFR (d746-750) kinase activity were measured.
The materials, the measurement method, and the data analysis method were substantially the same as those shown in the above description regarding “Measurement of EGFR (T790M/L858R) Kinase Inhibitory Activity,” except that a purified recombinant human EGFR (d746-750) protein purchased from Carna Biosciences, Inc. was used as the kinase protein, the measurement was performed with ATP at a final concentration of 5 μM, and the incubation for the kinase reaction was performed for 90 minutes. Finally, the IC50 value (nM) of each compound with respect to EGFR (d746-750) was determined by data analysis.

EGFR (WT) = biological target: T5, EGFR (WT) (Homo sapiens, UniProt P00533); assay: EGFR (WT) kinase inhibitory activity; type: biochemical; settings: substrate peptide 500 nM
T5 construct: expressing a cytoplasmic domain of human EGFR (WT) with its N-terminus fused to a FLAG tag; FLAG (N); made in house; host or cells: insect Sf9 cells, baculovirus expression system
T5 sequence (P00533 669-1210 limits assumed): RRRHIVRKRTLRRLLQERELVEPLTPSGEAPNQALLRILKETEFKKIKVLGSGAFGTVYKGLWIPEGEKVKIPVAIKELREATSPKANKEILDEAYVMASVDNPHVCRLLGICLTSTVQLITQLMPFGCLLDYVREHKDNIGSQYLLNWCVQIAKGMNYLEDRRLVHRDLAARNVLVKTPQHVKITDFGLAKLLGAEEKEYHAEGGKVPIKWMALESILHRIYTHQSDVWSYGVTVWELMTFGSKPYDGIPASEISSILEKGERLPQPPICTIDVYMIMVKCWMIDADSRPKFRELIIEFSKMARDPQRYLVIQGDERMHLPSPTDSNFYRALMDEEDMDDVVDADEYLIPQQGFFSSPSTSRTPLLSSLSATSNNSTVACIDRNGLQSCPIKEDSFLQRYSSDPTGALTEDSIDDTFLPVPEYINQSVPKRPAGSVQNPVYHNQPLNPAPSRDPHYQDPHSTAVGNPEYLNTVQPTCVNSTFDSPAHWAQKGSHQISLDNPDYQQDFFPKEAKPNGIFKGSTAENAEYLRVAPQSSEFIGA
Method: as §1, §2, §3
The inhibitory activities of the compounds of the present invention against EGFR (WT) kinase activity were measured.
The materials, the measurement method, and the data analysis method were substantially the same as those shown in the above description regarding “Measurement of EGFR (T790M/L858R) Kinase Inhibitory Activity,” except that a kinase protein prepared by expressing a cytoplasmic domain of human EGFR (WT) with its N-terminus fused to a FLAG tag in insect Sf9 cells using a baculovirus expression system and then purifying it with anti-FLAG antibody agarose (Sigma-Aldrich) was used as the kinase protein, the final concentration of the substrate peptide was 500 nM, and the final concentration of ATP was […]. Finally, the IC50 value (nM) of each compound with respect to EGFR (WT) was determined by data analysis.

[1] = tested on: NCI-H1975 expressing EGFR (T790M/L858R); assay: Growth inhibition, NCI-H1975 expressing EGFR (T790M/L858R); type: cell-based; settings: Homo sapiens, NCI-H1975, 72 h; cultured three days, CellTiter-Glo
Method: (§4) (1) A human […] lung cancer cell line NCI-H1975 expressing EGFR (T790M/L858R), (2) a human non-small cell lung cancer cell line HCC827 expressing EGFR (d746-750), and (3) a human epithelioid cancer cell line A431 expressing EGFR (WT) were each suspended in complete growth medium recommended by ATCC. The cell suspensions were seeded in each well of a 384-well flat microplate or a 96-well flat plate, and cultured in an incubator containing 5% carbon dioxide gas at 37° C. for one day. Each compound of the present invention was dissolved in DMSO, and serial dilutions of the test compound were prepared using DMSO (to a concentration 500 times the final concentration). The DMSO solution of the test compound or DMSO was diluted with complete growth medium, and the resulting solution was added to each well of the cell culture plate so that the final concentration of DMSO was 0.2%. Then, the cells were cultured in an incubator containing 5% carbon dioxide gas at 37° C. for three days. The number of cells was measured before the addition of the DMSO solution of the test compound, as well as after addition and culture by using a CellTiter-Glo Assay® (produced by Promega) according to a protocol recommended by Promega.
(§5) For each cell, the cell growth inhibition rates of the wells to which the test compounds at various concentrations were added were calculated by the following formula. Then, the obtained inhibition rates (%) at the respective concentrations were plotted for each test compound, and the GI50 value (nM), which is a test compound concentration at which the cell growth can be inhibited by 50%, was determined using XLfit curve-fitting software (IDBS). • Cell Growth Inhibition Rate (%)=(C−T)/(C−CO)×100 • T: Luminescence intensity of well cultured for three days after addition of the test compound solution • C: Luminescence intensity of well cultured for three days after addition of DMSO • C0: Luminescence intensity of well before addition of the test compound solution

[2] = tested on: HCC827 expressing EGFR (d746-750); assay: Growth inhibition, HCC827 expressing EGFR (d746-750); type: cell-based; settings: Homo sapiens, HCC827, 72 h; cultured three days, CellTiter-Glo
Method: as §4, §5

[3] = tested on: A431 expressing EGFR (WT); assay: Growth inhibition, A431 expressing EGFR (WT); type: cell-based; settings: Homo sapiens, A-431, 72 h; cultured three days, CellTiter-Glo
Method: as §4, §5

T1 sequence (P00533 25-1210 T790M/L858R): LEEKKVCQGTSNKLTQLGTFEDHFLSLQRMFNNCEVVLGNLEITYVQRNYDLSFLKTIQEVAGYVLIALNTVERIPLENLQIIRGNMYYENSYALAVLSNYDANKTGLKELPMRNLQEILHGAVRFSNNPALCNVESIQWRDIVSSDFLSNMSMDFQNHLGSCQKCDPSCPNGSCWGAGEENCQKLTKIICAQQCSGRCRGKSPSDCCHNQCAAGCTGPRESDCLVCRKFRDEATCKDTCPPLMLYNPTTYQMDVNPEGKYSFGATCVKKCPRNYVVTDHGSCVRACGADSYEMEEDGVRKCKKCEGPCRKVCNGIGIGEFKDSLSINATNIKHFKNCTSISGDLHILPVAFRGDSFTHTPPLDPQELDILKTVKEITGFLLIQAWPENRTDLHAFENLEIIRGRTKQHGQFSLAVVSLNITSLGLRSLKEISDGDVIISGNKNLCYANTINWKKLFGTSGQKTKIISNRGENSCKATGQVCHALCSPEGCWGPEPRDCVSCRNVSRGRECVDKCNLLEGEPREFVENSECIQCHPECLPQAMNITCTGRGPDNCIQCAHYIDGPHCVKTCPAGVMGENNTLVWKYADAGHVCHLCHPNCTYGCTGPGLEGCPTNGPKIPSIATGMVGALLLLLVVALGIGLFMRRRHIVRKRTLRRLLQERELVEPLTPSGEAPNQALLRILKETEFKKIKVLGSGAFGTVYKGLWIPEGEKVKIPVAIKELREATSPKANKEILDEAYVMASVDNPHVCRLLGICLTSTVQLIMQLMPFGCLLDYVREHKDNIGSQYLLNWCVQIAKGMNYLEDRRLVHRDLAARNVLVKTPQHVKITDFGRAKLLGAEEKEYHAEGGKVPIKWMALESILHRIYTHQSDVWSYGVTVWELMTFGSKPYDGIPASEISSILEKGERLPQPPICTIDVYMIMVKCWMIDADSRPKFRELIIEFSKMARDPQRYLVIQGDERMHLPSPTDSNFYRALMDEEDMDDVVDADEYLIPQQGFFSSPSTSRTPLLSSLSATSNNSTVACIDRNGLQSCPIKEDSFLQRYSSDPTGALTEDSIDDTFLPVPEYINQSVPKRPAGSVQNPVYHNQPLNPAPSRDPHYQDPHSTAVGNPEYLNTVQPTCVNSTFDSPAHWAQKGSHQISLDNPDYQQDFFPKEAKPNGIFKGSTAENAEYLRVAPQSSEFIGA

IC50 (EGFR (T790M/L858R)) [nM]	IC50 (EGFR (d746-750/T790M)) [nM]	IC50 (EGFR (L858R)) [nM]	IC50 (EGFR (d746-750)) [nM]	IC50 (EGFR (WT)) [nM]	GI50 [1] [nM]	GI50 [2] [nM]	GI50 [3] [nM]	SMILES
2.1	0.45	5.9	2.3	52	770	7.5	4200	C=C1c2c(-c3cnc4ccccc4c3)c3c(N)ncnc3n2C[C@H]1NC(=O)C#CC [Example 9, (S)—N-(4-amino-6-methylene-5-(quinolin-3-yl)-7,8-dihydro-6H-pyrimido[5,4-b]pyrrolizin-7-yl)but-2-ynamide]
0.66	0.29	1.2	0.75	11	240	7.9	3500	C=C1c2c(-c3cnc4ccccc4c3)c3c(N)ncnc3n2C[C@H]1NC(=O)/C=C/CN(C)C(C)C [Example 12, (S,E)-N-(4-amino-6-methylene-5-(quinolin-3-yl)-7,8-dihydro-6H-pyrimido[5,4-b]pyrrolizin-7-yl)-4-(isopropyl(methyl)amino)but-2-enamide]
77	30	230	78	1400	4200	780	> 10000	C=C(C)C(=O)N[C@@H]1Cn2c(c(-c3cnc4ccccc4c3)c3c(N)ncnc32)C1=C [Example 2, (S)—N-(4-amino-6-methylene-5-(quinolin-3-yl)-7,8-dihydro-6H -pyrimido[5,4-b]pyrrolizin-7-yl)methacrylamide]
0.4	< 0.5	0.63	0.45	6	140	5.5	2400	C=C1c2c(-c3cnc4ccccc4c3)c3c(N)ncnc3n2C[C@H]1NC(=O)/C=C/CN(C)C [Example 4, (S,E)-N-(4-amino-6-methylene-5-(quinolin-3-yl)-7,8-dihydro-6H-pyrimido[5,4-b]pyrrolizin-7-yl)-4-(dimethylamino)but-2-enamide]
0.35	0.23	0.37	0.33	5.5	56	5.7	1500	C=CC(=O)N(C)[C@@H]1CC(=C)c2c(-c3cnc4ccccc4c3)c3c(N)ncnc3n2C1 [Example 22, (R)—N-(4-amino-6-methylene-5-(quinolin-3-yl)-6,7,8,9-tetrahydropyrimido[5,4-b]indolizin-8-yl)-N-methylacrylamide]
1	0.53	1.7	1.2	12	150	5.6	2600	C=C1c2c(-c3cnc4ccccc4c3)c3c(N)ncnc3n2C[C@H]1NC(=O)/C=C/CN1CCCCC1 [Example 7, (S,E)-N-(4-amino-6-methylene-5-(quinolin-3-yl)-7,8-dihydro-6H-pyrimido[5,4-b]pyrrolizin-7-yl)-4-(piperidin-1-yl)but-2-enamide]
< 0.5	< 0.15	< 0.5	< 0.15	1	800	66	1100	C#CC(=O)N[C@@H]1Cn2c(c(-c3cnc4ccccc4c3)c3c(N)ncnc32)C1=C [Example 8, (S)—N-(4-amino-6-methylene-5-(quinolin-3-yl)-7,8-dihydro-6H-pyrimido[5,4-b]pyrrolizin-7-yl)propiolamide]
0.24	< 0.15	0.45	0.24	4.9	54	3.3	520	C=C1c2c(-c3cnc4ccccc4c3)c3c(N)ncnc3n2C[C@H]1NC(=O)/C=C\Cl [Example 6, (S,Z)—N-(4-amino-6-methylene-5-(quinolin-3-yl)-7,8-dihydro-6H-pyrimido[5,4-b]pyrrolizin-7-yl)-3-chloroacrylamide]
< 0.15	< 0.15	< 0.15	< 0.15	0.78	51	8.1	2200	C=C1c2c(-c3cnc4ccccc4c3)c3c(N)ncnc3n2C[C@H]1NC(=O)/C=C/Cl [Example 5, (S,E)-N-(4-amino-6-methylene-5-(quinolin-3-yl)-7,8-dihydro-6H-pyrimido[5,4-b]pyrrolizin-7-yl)-3-chloroacrylamide]
